Assay results from patent US20070027144A1, “Novel use of cannabinoid receptor agonist” (SHIONOGI & CO., LTD., priority 2003, published 2007).

Legend:
guinea pigs [1] = assay: Antigen-induced bronchial hyperresponsiveness in guinea pigs (chronic model); format: in vivo; conditions: oral for 8 days, 30 mg/kg, P<0.05
Description: Antigen-induced bronchial hyperresponsiveness in guinea pigs: Guinea pigs (Charles River Japan) held in an exposure chamber were actively sensitized by the inhalation of an aerosolized 1% OVA solution for 10 min using an ultrasonic nebulizer (NE-U12, Omron) twice with an interval of 1 week. One week later, antigen challenge was performed by inhalation of an aerosolized 1% OVA generated by an ultrasonic nebulizer for 5 min. Test compounds were administered orally 1 h before antigen challenge. In addition, guinea pigs were treated with diphenhydramine (10 mg/kg, i.p.), an antihistamine, to protect the animals from anaphylactic death 10 min before antigen challenge. ACh was intravenously injected to guinea pigs 24 h after antigen challenge under urethane anesthesia (1.4 g/kg, i.p.) by increasing doses of ACh every 5 min, then bronchoconstrictor response observed immediately after each ACh injection was measured by the method of Konzett & Rössler with some modifications. Briefly, trachea of guinea pigs was incised and a cannula was attached to the lung side. […] The insufflation pressure overflowed from inhalation tube was monitored by a pressure transducer (TP-400T, Nihon Kohden) and recorded on a recorder (WT-645G, Nihon Kohden) through a carrier amplifier (AP-601G, Nihon Kohden). […]

guinea pigs [2] = assay: Antigen-induced airway inflammatory cell infiltration in guinea pigs (chronic model); format: in vivo; conditions: oral for 8 days, 30 mg/kg, P<0.01
Description: (§1) Antigen-induced bronchial hyperresponsiveness in guinea pigs: Guinea pigs held in an exposure chamber were actively sensitized by the inhalation of an aerosolized 1% OVA solution for 10 min using an ultrasonic nebulizer (NE-U12, Omron) twice with an interval of 1 week. One week and 2 weeks later, antigen challenge was performed twice by inhalation of an aerosolized 1% OVA generated by an ultrasonic nebulizer for 5 min. Test compounds were administered orally for 8 days from the day of first antigen challenge. On the day of each antigen challenge, test compounds were administered 1 h before challenge. […] Inhibitory effect on bronchial hyperresponsiveness was evaluated 24 h after last antigen challenge by the method described in the section of Experimental Example 7. The area under the curve (AUC) calculated from dose-response curve for ACh was compared between vehicle-treated control group and test compound-treated group, and then statistical significance was analyzed concerning inhibitory effect on bronchial hyperresponsiveness.
Antigen-induced airway inflammatory cell infiltration in guinea pigs: After finishing experiment mentioned above, the lungs are washed 3 times with 10 mL of physiological saline through tracheal cannula using injection syringe. Then the cell number in the washing was determined. […]

guinea pigs [3] = assay: Antigen-induced airway inflammatory cell infiltration in guinea pigs (acute model); format: in vivo; conditions: oral
Description: Antigen-induced bronchial hyperresponsiveness in guinea pigs: Guinea pigs (Charles River Japan) held in an exposure chamber were actively sensitized by the inhalation of an aerosolized 1% OVA solution for 10 min using an ultrasonic nebulizer (NE-U12, Omron) twice with an interval of 1 week. One week later, antigen challenge was performed by inhalation of an aerosolized 1% OVA generated by an ultrasonic nebulizer for 5 min. Test compounds were administered orally 1 h before antigen challenge. In addition, guinea pigs were treated with diphenhydramine (10 mg/kg, i.p.), an antihistamine, to protect the animals from anaphylactic death 10 min before antigen challenge. ACh was intravenously injected to guinea pigs 24 h after antigen challenge under urethane anesthesia (1.4 g/kg, i.p.) by increasing doses of ACh every 5 min, then bronchoconstrictor response observed immediately after each ACh injection was measured by the method of Konzett & Rössler with some modifications. Briefly, trachea of guinea pigs was incised and a cannula was attached to the lung side. […] The insufflation pressure overflowed from inhalation tube was monitored by a pressure transducer (TP-400T, Nihon Kohden) and recorded on a recorder (WT-645G, Nihon Kohden) through a carrier amplifier (AP-601G, Nihon Kohden). The area under the curve (AUC) calculated from dose-response curve for ACh was compared between vehicle-treated control group and test compound-treated group, and then statistical significance was analyzed concerning inhibitory effect on bronchial hyperresponsiveness.
Antigen-induced airway inflammatory cell infiltration in guinea pigs: After finishing experiment mentioned above, the lungs are washed 3 times with 10 mL of physiological saline through tracheal cannula using injection syringe. Then the cell number in the washing was determined. […] Differential cell counts were performed after May-Grünwald-Giemsa staining, and then statistical significance was analyzed concerning inhibitory effect on airway inflammatory cell infiltration.

guinea pigs [4] = assay: Antigen-induced bronchial hyperresponsiveness in guinea pigs (acute model); format: in vivo; conditions: oral 1 h before antigen challenge
Description: Antigen-induced bronchial hyperresponsiveness in guinea pigs: Guinea pigs (Charles River Japan) held in an exposure chamber were actively sensitized by the inhalation of an aerosolized 1% OVA solution for 10 min using an ultrasonic nebulizer (NE-U12, Omron) twice with an interval of 1 week. One week later, antigen challenge was performed by inhalation of an aerosolized 1% OVA generated by an ultrasonic nebulizer for 5 min. Test compounds were administered orally 1 h before antigen challenge. In addition, guinea pigs were treated with diphenhydramine (10 mg/kg, i.p.), an antihistamine, to protect the animals from anaphylactic death 10 min before antigen challenge. ACh was intravenously injected to guinea pigs 24 h after antigen challenge under urethane anesthesia (1.4 g/kg, i.p.) by increasing doses of ACh every 5 min, then bronchoconstrictor response observed immediately after each ACh injection was measured by the method of Konzett & Rössler with some modifications. Briefly, trachea of guinea pigs was incised and a cannula was attached to the lung side. An artificial respirator (SN-480-7, Shinano) was connected to the cannula, and then a fixed amount of air (tidal volume: 4 mL, ventilation frequency: 60 times/min) continuously insufflated to maintain respiration. The insufflation pressure overflowed from inhalation tube was monitored by a pressure transducer (TP-400T, Nihon Kohden) and recorded on a recorder (WT-645G, Nihon Kohden) through a carrier amplifier (AP-601G, Nihon Kohden). The area under the curve (AUC) calculated from dose-response curve for ACh was compared between vehicle-treated control group and test compound-treated group, and then statistical significance was analyzed concerning inhibitory effect on bronchial hyperresponsiveness.

guinea pigs [5] = assay: Antigen-induced mucus secretion in guinea pigs (chronic model); format: in vivo; conditions: oral for 8 days, 30 mg/kg, P<0.01
Description: as §1
Antigen-induced mucus secretion in guinea pigs: After measurement of bronchial hyperresponsiveness, the lungs are washed 3 times with 10 mL of physiological saline through tracheal cannula using injection syringe, and then the washing was centrifuged. […] Statistical significance was analyzed concerning inhibitory effect on mucus secretion.

BN rats [6] = assay: Antigen-induced bronchial hyperresponsiveness in BN rats (chronic model); format: in vivo; conditions: oral for 8 days
Description: (§2) Antigen-induced bronchial hyperresponsiveness in BN rats: Brown Norway (BN) rats (Charles River Japan) were actively sensitized by the intraperitoneal injection of 1 mL mixture containing aluminum hydroxide gel (1 mg) and ovalbumin (0.1 mg, OVA). Ten days later, antigen challenge was performed by the inhalation of an aerosolized 1% OVA solution for 30 min using an ultrasonic nebulizer. ACh was intravenously injected to rats 24 h after antigen challenge under sodium pentobarbital anesthesia (80 mg/kg, i.p.) by increasing doses of ACh every 5 min, then bronchoconstrictor response observed immediately after each ACh injection was measured by the method of Konzett & Rössler with some modifications. Briefly, trachea of rats was incised and a cannula was attached to lung side. An artificial respirator (SN-480-7, Shinano) was connected to the cannula, and then a fixed amount of air (tidal volume: 3 mL, ventilation frequency: 60 times/min) continuously insufflated to maintain respiration. The insufflation pressure overflowed from inhalation tube was monitored by a pressure transducer (TP-400T, Nihon Kohden) and recorded on a recorder (WT-645G, Nihon Kohden) through a carrier amplifier (AP-601G, Nihon Kohden). Test compounds were administered orally once 1 h before antigen challenge. The area under the curve (AUC) calculated from dose-response curve for ACh was compared between vehicle-treated control group and test compound-treated group, and then statistical significance was analyzed concerning inhibitory effect on bronchial hyperresponsiveness.
(§3) Antigen-induced bronchial hyperresponsiveness in BN rats: BN rats were actively sensitized by the intraperitoneal injection of a mixture containing aluminum hydroxide gel and ovalbumin. Twelve days later, antigen challenge was performed by the inhalation of an aerosolized 1% OVA solution or physiological saline for 30 min using an ultrasonic nebulizer (NE-U12, Omron). […] Inhibitory effect on bronchial hyperresponsiveness was evaluated 24 h after last antigen challenge by the method described in the section of Experimental Example 1.

BN rats [7] = assay: Antigen-induced airway inflammatory cell infiltration in BN rats (chronic model); format: in vivo; conditions: oral for 8 days, 100 mg/kg, P<0.01
Description: as §3, with “Omron). To establish chronic bronchial hyerreactivity model, this procedure was repeated 3 times with 1-week intervals. Test compounds were administered orally for 8 days from the day of third antigen challenge. On the day of third antigen challenge, test compounds were administered 1 h before challenge.” for “Omron).”
Antigen-induced airway inflammatory cell infiltration in BN rats: After finishing experiment mentioned above, the lungs were washed 3 times with 5 mL of physiological saline through tracheal cannula using injection syringe. Then the cell number in the washing was determined. […] Differential cell counts were performed after May-Grünwald-Giemsa staining, and then statistical significance was analyzed concerning inhibitory effect on airway inflammatory cell infiltration as in the section of Experimental Example 2.

BN rats [8] = assay: Antigen-induced airway inflammatory cell infiltration in BN rats (acute model); format: in vivo, Brown Norway (BN) rats; conditions: oral, P<0.01
Description: as §2, with “An artificial respirator (SN-480-7, Shinano) was connected to the cannula, and then a fixed amount of air (tidal volume: 3 mL, ventilation frequency: 60 times/min) continuously insufflated to maintain respiration.” left out, “Test compounds were administered orally once 1 h before antigen challenge.” left out, “hyperresponsiveness. […]” for “hyperresponsiveness.”

guinea pigs [9] = assay: Bronchodilating effect in guinea pigs (ACh-induced bronchoconstriction); format: in vivo; conditions: oral 1 h before ACh injection, 10 mg/kg, P<0.01
Description: Under urethane anesthesia (1.4 g/kg, i.p.), ACh was intravenously injected to guinea pigs by increasing doses of ACh every 5 min, then bronchoconstrictor response observed immediately after each ACh injection was measured by the method of Konzett & Rössler with some modifications. Briefly, trachea of guinea pigs was incised and a cannula was attached to the lung side. An artificial respirator (SN-480-7, Shinano) was connected to the cannula, and then a fixed amount of air (tidal volume: 4 mL, ventilation frequency: 60 times/min) continuously insufflated to maintain respiration. The insufflation pressure overflowed from inhalation tube was monitored by a pressure transducer (TP-400T, Nihon Kohden) and recorded on a recorder (WT-645G, Nihon Kohden) through a carrier amplifier (AP-601G, Nihon Kohden). Test compounds were administered orally 1 h before ACh injection, then the effect on the dose-response curve of ACh was examined. Statistical significance was analyzed concerning broncohdilating effect in guinea pigs.

BN rats [10] = assay: Antigen-induced mucus secretion in BN rats (acute model); format: in vivo, Brown Norway (BN) rats; conditions: oral, 10 mg/kg, P<0.01
Description: as §2, with “An artificial respirator (SN-480-7, Shinano) was connected to the cannula, and then a fixed amount of air (tidal volume: 3 mL, ventilation frequency: 60 times/min) continuously insufflated to maintain respiration.” left out, “Test compounds were administered orally once 1 h before antigen challenge.” left out, “hyperresponsiveness. […]” for “hyperresponsiveness.”

BN rats [11] = assay: Antigen-induced bronchial hyperresponsiveness in BN rats (acute model); format: in vivo, Brown Norway (BN) rats; conditions: oral once 1 h before antigen challenge, 10 mg/kg, P<0.01
Description: as §2, with “An artificial respirator (SN-480-7, Shinano) was connected to the cannula, and then a fixed amount of air (tidal volume: 3 mL, ventilation frequency: 60 times/min) continuously insufflated to maintain respiration.” left out, “Test compounds were administered orally once 1 h before antigen challenge.” left out

CSC(=S)N1CC2(CCCCC2)CS/C1=N\c1ccc(OC(F)(F)F)cc1 [Compound I-12]
significant effect: inhibitory effect on bronchial hyperresponsiveness (AUC of ACh dose-response curve vs vehicle) (guinea pigs [1]) | inhibitory effect on airway inflammatory cell infiltration (guinea pigs [2]) | inhibitory effect on airway inflammatory cell infiltration (guinea pigs [3]; 10 mg/kg, P<0.05) | inhibitory effect on bronchial hyperresponsiveness (AUC of ACh dose-response curve vs vehicle) (guinea pigs [4]; 10 mg/kg, P<0.05) | inhibitory effect on mucus secretion (mucin levels in lung washing) (guinea pigs [5]) | inhibitory effect on bronchial hyperresponsiveness (BN rats [6]; 30 mg/kg, P<0.01) | inhibitory effect on bronchial hyperresponsiveness (BN rats [6]; 100 mg/kg, P<0.05) | inhibitory effect on airway inflammatory cell infiltration (BN rats [7])

CCCCn1c2c(cc(C(=O)NC(C)(C)c3ccccc3)c1=O)CCCCCC2 [Compound 4-320]
significant effect: inhibitory effect on airway inflammatory cell infiltration (BN rats [8]; 1 mg/kg) | inhibitory effect on airway inflammatory cell infiltration (BN rats [8]; 10 mg/kg) | inhibitory effect on airway inflammatory cell infiltration (guinea pigs [3]; 1 mg/kg, P<0.05) | inhibitory effect on airway inflammatory cell infiltration (guinea pigs [3]; 10 mg/kg, P<0.01) | bronchodilating effect (effect on the dose-response curve of ACh) (guinea pigs [9]) | inhibitory effect on bronchial hyperresponsiveness (AUC of ACh dose-response curve vs vehicle) (guinea pigs [4]; 1 mg/kg, P<0.01) | inhibitory effect on bronchial hyperresponsiveness (AUC of ACh dose-response curve vs vehicle) (guinea pigs [4]; 10 mg/kg, P<0.05) | inhibitory effect on mucus secretion (mucin levels in lung washing) (BN rats [10]) | inhibitory effect on bronchial hyperresponsiveness (BN rats [6]; 3 mg/kg, P<0.01) | inhibitory effect on bronchial hyperresponsiveness (AUC of ACh dose-response curve vs vehicle) (BN rats [11])
